Read-outs that look alike come from different tables or passages of the source.
What was measured:
[1] = test system: Chinese hamster ovary (CHO) cells; assay: In vitro genotoxicity screen in CHO cells; assay type: cell-based; settings: approximately 3 hours exposure in the dark, dilutions 1-1000 μg/ml
Excerpt: The positive control was methylmethane sulfonate.
Coverslips were mounted with Permount.

[2] = test system: Salmonella typhimurium TA100
Excerpt: (§1) The second property that is important in testing a compound for use in methods of the present invention is mutagenicity. The most widely used mutagen/carcinogen screening assay is the Ames test. This assay is described by D. M. Maron and B. N. Ames in Mutation Research 113: 173 ( 1983) and a specific screen is described in detail in Example 17, below. The Ames test utilizes several unique strains of Salmonella typhimurium that are histidine- dependent for growth and that lack the usual DNA repair enzymes. The frequency of normal mutations that render the bacteria independent of histidine (i.e., the frequency of spontaneous revertants) is low. The test allows one to evaluate the impact of a compound on this revertant frequency.
(§2) In this example the compounds of the present invention are tested for their dark mutagenicity using an Ames assay. The procedures used for the Salmonella mutagenicity test as described in detail by Maron and Ames were followed exactly. Maron, D. M. and B. N. Ames, Mutation Research 113: 173 ( 1983). A brief description for each procedure is given here. The tester strains TA97a, TA98, TA100, TA102, TA1537 and TA1538 were obtained from Dr. Ames. TA97a, TA98, TA1537 and TA1538 are frameshift tester strains. TA100 and TA102 are base-substitution tester strains. Upon receipt each strain was cultured under a variety of conditions to confirm the genotypes specific to the strains.
(§3) The first tests done with the strains were to determine the range of spontaneous reversion for each of the strains. With each mutagenicity experiment the spontaneous reversion of the tester strains to histidine independence was measured and expressed as the number of spontaneous revertants per plate. This served as the background controls.
(§4) For all experiments, the pre-incubation procedure was used. In this procedure one vial of each tester strain was thawed and 20 μL of this culture was added to 6 mL of Oxoid Nutrient Broth #2. This solution was allowed to shake for 10 hours at 37° C. In the pre-incubation procedure, 0.1 mL of this overnight culture was added to each of the required number of sterile test tubes. To half of the tubes 0.5 mL of a 10% S-9 solution containing Aroclor 1254 induced rat liver extract (Molecular Toxicology Inc., Annapolis, Md.), and MgCl2, KCl, glucose-6-phosphate, NADP, and sodium phosphate buffer (Sigma, St. Louis, Mo.) were added. To the other half of the tubes 0.5 mL of 0.2M sodium phospate buffer, pH 7.4, was used in place of the S-9 mixture (the -S9 samples). Finally 0.1 mL of the test solution containing either 0, 0.1, 0.5, 1, 5, 10, 50, 100, 250, or 500 μg/mL of the test compound was added. The 0.7 mL mixture was vortexed and then pre-incubated while shaking for 20 minutes at 37° C. After shaking, 2 mL of molten top agar supplemented with histidine and biotin were added to the 0.7 mL mixture and immediately poured onto a minimal glucose agar plate (volume of base agar was 20 mL). The top agar was allowed 30 minutes to solidify and then the plates were inverted and incubated for 44 hours at 37° C. After incubation the number of revertant colonies on each plate were counted. […] (“n” represents the number of replicates performed for each data point.)
(§5) Maron and Ames (1983) describe the conflicting views with regard to the statisical treatment of data generated from the test.

[3] = test system: R17; assay: R17 bacteriophage inactivation assay (r-17 screen); assay type: cell-based, bacteriophage R17 (grown in Hfr 3000 bacteria)
Description: An r-17 bacteriophage assay was used in this example to predict pathogen inactivation efficiency and to determine nucleic acid binding of the photoreactive binding compounds of the present invention. In the r-17 assay, the bacteriophage was placed in a solution with each compound tested and was then irradiated. The ability of the phage to subsequently infect bacteria and inhibit their growth was measured. The bacteriophage was selected for its relatively accessible nucleic acid such that the culture growth inhibition would accurately reflect nucleic acid damage by the test compounds. The bacteriophage assay for nucleic acid binding to test compounds offers a safe and inexpensive procedure to identify compounds likely to display efficient pathogen inactivation.
The R17 was grown up in Hfr 3000 bacteria, approximate titer 5 ×10^11. (R17 and Hfr 3000 were obtained from American Tissue Culture Collection (ATCC), Washington, D.C.) The R17 phage stock was added to a solution of 15% fetal bovine serum in Dulbecco's Modified Eagles Medium (DMEM) to a final phage concentration of 10^9/mL. An aliquot (0.5 mL) was transferred to a 1.5 mL snap-top polyethylene tube. An aliquot (0.004-0.040 mL) of the test compound stock solution prepared in water, ethanol or dimethylsulfoxide at 0.80-8.0 mM was added to the tube. Compounds were tested at concentrations between 4 μM and 320 μM. […] The tubes were placed in a light device as described in EXAMPLE 1 and irradiated for between 1 and 10 minutes. Sterile 13 mL dilution tubes were prepared; each test compound required one tube with 0.4 mL of Luria broth (LB) and five tubes containing 0.5 mL of LB broth. To make the dilutions, a 0.100 mL aliquot of the irradiated solution of phage and test compound was added to the first dilution tube of 0.4 mL of media then 0.020 mL of this solution was added to the second tube of 0.5 mL medium (1:25). The second solution was then diluted serially (1:25) into the remaining tubes. To each diluted sample was added 0.050 mL of Hfr 3000 bacteria cultured overnight and 3 mL of molten LB top agar and the mixed materials were poured onto LB broth plates. After the top agar hardened, the plates were incubated at 37° C. overnight. The plaque forming units were then counted the following morning and the titer of the phage remaining after phototreatment was calculated based on the dilution factors.
The following controls were run: the “phage only” in which phage was not treated with test compound and not irradiated (listed as “starting titer” in the tables below); the “UV only” in which the phage was irradiated in the absence of test compound; and the “dark” control in which the phage/test compound solution was not irradiated before it was diluted and plated.
Compounds of the present invention were also tested at a constant concentration for varying doses of UV light. Three sets of 1.5 mL tubes were prepared containing 0.6 mL aliquots of R17 in DMEM (prepared as described above). The compound tested was added at the desired concentration and the samples were vortexed. The samples were then irradiated at intervals of 1.0 J/cm^2, until 3.0 J/cm^2 was reached. Between each 1.0 J/cm^2 interval, 100 μL was removed from each sample and placed in the first corresponding dilution tube, then five sequential dilutions were performed for each compound tested, at all 3 irradiation doses, as described above in this example.
Then 50 μL of Hfr 3000 bacteria was added to each tube, 3 mL of top agar was added and the tube contents were vortexed. The contents of each tube was poured into its own LB plate and the plates were incubated overnight at 37° C. Plaques were counted by visual inspection the following morning.

[4] = test system: Salmonella typhimurium TA1538; assay: Ames assay (dark mutagenicity), strain TA1538
Excerpt: as §1, §2, §3, §4, §5

[5] = test system: Salmonella tester strains TA97a, TA98, TA100, TA102, TA1537 and TA1538; assay: Ames assay, overall assessment over the tester strains; settings: strains tested: TA100 and TA1538, ±S9, 5 and 10 μg/plate
Excerpt: as §1, §2, §3
For all experiments, the pre-incubation procedure was used. In this procedure one vial of each tester strain was thawed and 20 μL of this culture was added to 6 mL of Oxoid Nutrient Broth #2. This solution was allowed to shake for 10 hours at 37° C. In the pre-incubation procedure, 0.1 mL of this overnight culture was added to each of the required number of sterile test tubes. To half of the tubes 0.5 mL of a 10% S-9 solution containing Aroclor 1254 induced rat liver extract (Molecular Toxicology Inc., Annapolis, Md.), and MgCl2, KCl, glucose-6-phosphate, NADP, and sodium phosphate buffer (Sigma, St. Louis, Mo.) were added. To the other half of the tubes 0.5 mL of 0.2M sodium phospate buffer, pH 7.4, was used in place of the S-9 mixture (the -S9 samples). Finally 0.1 mL of the test solution containing either 0, 0.1, 0.5, 1, 5, 10, 50, 100, 250, or 500 μg/mL of the test compound was added. […] After incubation the number of revertant colonies on each plate were counted. […]

[6] = test system: Salmonella typhimurium TA102; assay: Ames assay (dark mutagenicity), strain TA102; settings: TA102 at 500 μg/plate
Excerpt: as §1, §2, §3, §4, §5

[7] = test system: Duck Hepatitis B Virus (DHBV); assay: Inactivation of DHBV in platelet concentrate, PCR amplification readout; settings: 5J/CM^2 UVA
Description: This example describes the protocol for inactivation of Duck Hepatitis B Virus (DHBV), a model for Hepatitis B Virus, using compounds of the present invention. DHBV in duck yolk was added to platelet concentrate (PC) to a final concentration of 2×10^7 particles per mL and mixed by gentle rocking for ≧15 min. […] Samples, including controls without added psoralen, were irradiated with 5J/CM^2 UVA, with mixing at 1 J/cm^2 increments. After irradiation, leukocytes and platelets were separated from virus by centrifugation. […] Samples were extracted with phenol-chloroform and chloroform, followed by ethanol precipitation. […] PCR amplicons were generated using primers pairs DCD03/DCD05 (127 bp), DCD03/DCD06 (327 bp) and DCD03/DCD07 (1072 bp). PCR was performed in a standard PCR buffer containing 0.2 mM each deoxyribonucleoside 5′-triphosphates (dATP, dGTP, dCTP, and dTTP), […], and 0.5 units Taq polymerase per […]. 30 cycles of amplification were performed with the following thermal profile: 95° C. 30 sec, 60° C. 30 sec, 72° C. 1 min. The amplification was followed by a 7 min incubation at 72° C. to yield full length products. […] was added at an amount of […] in order to detect and quantify the resulting products. Products were separated by electrophoresis on denaturing polyacrylamide slab gels and counted. The absence of signal in a given reaction was taken to indicate effective inactivation of DHBV.

Cc1oc2c(CN)c3oc(=O)cc(C)c3cc2c1C [8-aminomethyl-4,4′, 5′-trimethylpsoralen, reference compound]
genotoxic (toxic) concentration [1]: 10 µg/mL

Cc1oc2c(C)c3oc(=O)cc(C)c3cc2c1CNCCN [Compound 1, 4′-(4-amino-2-aza)butyl-4,5′,8-trimethylpsoralen]
revertants per plate ([2]; TA100 +S9, 5 μg/plate): −24 | revertants per plate ([2]; TA100 +S9, 10 μg/plate): −22 | mutation in the TA100 strain ([2]; TA100, with and without S9): displayed mutation in the TA100 strain, but only in the absence of S9 | R17 inactivation efficiency compared with 8-MOP ([3]; 32 μM, 1 minute irradiation): much higher R17 inactivation efficiency than does 8-MOP | LOG TITER ([3]; experiment 1, 32 μM cmpd, 1′ uva, phage only titer 7.7): <1 log | LOG TITER ([3]; experiment 1, 32 μM cmpd, 10′ uva, phage only titer 7.7): <1 log | LOG TITER ([3]; experiment 1, compound only (32 μM), no uva, phage only titer 7.7): 7.6 log | LOG TITER ([3]; experiment 2, 3.2 μM cmpd, 1′ uva, phage only titer 7.8): 6.9 log | LOG TITER ([3]; experiment 2, 3.2 μM cmpd, 10′ uva, phage only titer 7.8): 6.1 log | LOG TITER ([3]; experiment 2, compound only (3.2 μM), no uva, phage only titer 7.8): 7.7 log | LOG TITER ([3]; experiment 3, 4 μM cmpd, 1′ uva, phage only titer 7.3): 6.3 log | LOG TITER ([3]; experiment 3, 8 μM cmpd, 1′ uva, phage only titer 7.3): 5.6 log | LOG TITER ([3]; experiment 3, 16 μM cmpd, 1′ uva, phage only titer 7.3): 3.9 log | LOG TITER ([3]; experiment 3, compound only (16 μM), no uva, phage only titer 7.3): 7.3 log | mutagenic response detected ([4]; TA1538 at 5 μg/plate in the presence of S9): weak frameshift mutagen | revertants per plate ([4]; TA1538 −S9, 5 μg/plate): 10 | revertants per plate ([4]; TA1538 −S9, 10 μg/plate): 12

Cc1oc2c(C)c3oc(=O)cc(C)c3cc2c1COCCCN [Compound 4, 4′-(5-amino-2-oxa)pentyl-4,5′,8-trimethylpsoralen]
revertants per plate ([2]; TA100 +S9, 5 μg/plate): −10 | revertants per plate ([2]; TA100 +S9, 10 μg/plate): −3 | revertants per plate ([4]; TA1538 −S9, 5 μg/plate): −2 | revertants per plate ([4]; TA1538 −S9, 10 μg/plate): −2 | mutagenicity (overall) [5]: no mutagenicity

COc1c2occc2cc2ccc(=O)oc12 [Compound 8-MOP, 8-Methoxypsoralen]
mutagenic response detected [6]: weak base-substitution mutagen

Cc1oc2c(C)c3oc(=O)cc(C)c3cc2c1COCCN [Compound S-59]
PCR amplification of the 1072 bp DHBV amplicon ([7]; all concentrations (35, 70, and 100 mM)): complete inhibition of PCR | inhibition of PCR of the smaller DHBV amplicons (127 bp, 327 bp) compared with AMT ([7]; same concentrations): inhibited PCR of the smaller amplicons better than did AMT

Source: patent publication US6469052B2, “Compounds for the photodecontamination of pathogens in blood” (Cerus Corporation, priority 1993, dated 2002)
